{
  "source": "patent US20020037872A1",
  "about": "“N6 heterocyclic 5' modified adenosine derivatives” (CV Therapeutics, Inc., priority 1999, published 2002)",
  "key": {"A1 adenosine receptor [1]": {"target": "T1, A1 adenosine receptor (Mesocricetus auratus, UniProt A0A1U8BVR4)", "T1 construct": "endogenous in cells; host or cells: DDT1 (DDT1 MF-2) hamster vas deferens smooth muscle cells", "T1 sequence (A0A1U8BVR4 1-326)": "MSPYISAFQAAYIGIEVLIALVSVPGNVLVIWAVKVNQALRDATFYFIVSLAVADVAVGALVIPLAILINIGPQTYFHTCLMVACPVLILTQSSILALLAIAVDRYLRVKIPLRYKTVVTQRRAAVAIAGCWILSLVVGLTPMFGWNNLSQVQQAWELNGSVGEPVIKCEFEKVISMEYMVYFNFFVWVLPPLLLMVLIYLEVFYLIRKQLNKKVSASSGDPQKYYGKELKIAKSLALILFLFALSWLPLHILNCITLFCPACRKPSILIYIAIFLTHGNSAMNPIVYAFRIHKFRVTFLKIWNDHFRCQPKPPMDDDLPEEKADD", "test": "[35S]GTPγS binding assay, A1-agonist stimulated", "format": "biochemical, hamster", "settings": "[…], agonist stimulated [35S]GTPγS binding, CPA = 100%", "procedure,_shortened": "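Membranes in 50 mM Tris-HCl pH 7.4, 5 mM MgCl2, 100 mM NaCl, 1 mM DTT used for A1-agonist-stimulated [35S]GTPγS binding, read by filtration. Nonspecific binding defined with 10 μM GTPγS. Saturation runs used 0.5 nM [35S]GTPγS with 0.5–1000 nM GTPγS.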"}, "A1 adenosine receptor [2]": {"target": "T2, A1 adenosine receptor (Cavia porcellus, UniProt P47745)", "T2 construct": "The hearts were quickly removed and rinsed in ice-cold Krebs-Henseleit solution; from tissue; host or cells: guinea pig isolated perfused heart", "T2 sequence (P47745 1-326)": "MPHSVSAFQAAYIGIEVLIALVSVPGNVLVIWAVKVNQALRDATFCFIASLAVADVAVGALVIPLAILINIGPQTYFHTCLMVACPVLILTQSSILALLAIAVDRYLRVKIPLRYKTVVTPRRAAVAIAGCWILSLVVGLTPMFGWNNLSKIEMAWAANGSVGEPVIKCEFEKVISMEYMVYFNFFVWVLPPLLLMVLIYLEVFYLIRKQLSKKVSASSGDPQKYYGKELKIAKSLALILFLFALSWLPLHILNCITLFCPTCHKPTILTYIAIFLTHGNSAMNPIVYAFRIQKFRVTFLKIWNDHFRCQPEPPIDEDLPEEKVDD", "test": "Guinea pig isolated perfused heart: S-H interval, heart rate, atrial MAP", "protocol": "(§1) Guinea pigs of either sex weighing 250-300 g were anesthetized with methoxyflurane and killed by cervical dislocation. The hearts were quickly removed and rinsed in ice-cold Krebs-Henseleit solution. The aorta was cannulated and the heart retrogradely perfused at a constant flow of 10 ml min^−1 with modified Krebs-Henseleit solution containing (mM): NaCL 117.9, KCl 4.8, CaCl2 2.5, MgSO4 1.18, KH2PO4 1.2, Na2EDTA 0.5, ascorbic acid 0.14, glucose 5.5, pyruvic acid (sodium salt) 2.0, and NaHCO3 25. The K—H solution was oxygenated with 95% oxygen and 5% CO2, pH 7.4, and temperature maintained at 36° C.\nHearts were electrically paced at a cycle length of 290-300 ms (unless otherwise indicated) using a bipolar electrode placed on the right atrium or ventricle. The stimulator, an interval generator (Model 1830, WPI, Sarasota, Fla., U.S.A.) delivered stimuli through a stimulus isolation unit (Model 1880, WPI) as square wave pulses of 3 ms in duration and at least twice the threshold intensity. The stimulus-to-His bundle (S—H) interval was used as index of AV nodal conduction time and was measured on-line during constant atrial pacing from microcomputer with a DT-208 1A interface board (Axon Instruments, Burlingame, Calif., U.S.A.) In experiments to study the chronotropic effect (effect on heart rate) of A1 AdoR agonists, the hearts were allowed to beat spontaneously. An atrial electrogram was used to record the electrical activity of the atria and to measure the heart rate.\nMonophasic action potentials (MAP) were recorded using a pressure contact silver-silver chloride electrode (Langendorf Probe, EP Technologies, Inc., Sunnyvale, Calif., U.S.A.) placed on the surface of the left atrium. […] Signals were considered adequate if they were stable for at least 5 min and the amplitudes of the MAPs exceeded 10 mV. The data were digitized at 2 kHz by a DT-2801A digitizing board (Data Translation, Marlboro, Mass., U.S.A.) and stored using the Snapshot data acquisition program (Snapshot Storage Scope, HEM Data Corp., Southfield, Mich., U.S.A.) for later analysis. The duration of the atrial monophasic action potential was measured at 90% repolarization (MAPD90), using the Snapshot program. After completion of dissection and instrumentation, the hearts were allowed to equilibrate for 30 min before the experiments were begun. Whenever the baseline and post-intervention (washout) values differed by more than 15% the data were discarded. Approximately 60-70% of the experiments conformed with this criteria."}, "A2A AdoR": {"target": "T3, A2A AdoR (Cavia porcellus, UniProt P46616)", "T3 construct": "from tissue; host or cells: guinea pig isolated perfused heart", "T3 sequence (P46616 whole entry, the tested form may be a part)": "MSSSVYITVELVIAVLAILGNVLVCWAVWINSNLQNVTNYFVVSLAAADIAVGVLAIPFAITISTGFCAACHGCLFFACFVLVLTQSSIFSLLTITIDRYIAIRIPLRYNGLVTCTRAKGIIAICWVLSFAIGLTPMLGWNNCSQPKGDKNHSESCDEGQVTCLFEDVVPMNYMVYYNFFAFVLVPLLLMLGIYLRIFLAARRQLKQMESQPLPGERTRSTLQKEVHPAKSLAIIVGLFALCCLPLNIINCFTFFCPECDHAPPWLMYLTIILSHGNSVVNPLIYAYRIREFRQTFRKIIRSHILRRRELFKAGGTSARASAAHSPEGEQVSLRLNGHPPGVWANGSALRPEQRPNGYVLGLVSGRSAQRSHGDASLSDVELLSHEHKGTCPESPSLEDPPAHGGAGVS", "test": "Guinea pig isolated perfused heart: coronary vasodilation (coronary conductance)", "settings": "guinea pig isolated perfused hearts; read-out: EC50 to cause coronary vasodilation", "protocol": "as §1\nCoronary perfusion pressure was measured using a pressure transducer that was connected to the aortic cannula via a T-connector. Coronary perfusion pressure (in mmHg) was monitored throughout an experiment and recorded on a 4-channel Gould strip-chart recorder (Gould RS3400, Cleveland, Ohio, U.S.A.). Coronary conductance (in ml min^−1 mmHg^−1) was calculated as the ratio of coronary perfusion rate (10 ml min^−1) and perfusion pressure (mmHg)."}},
  "data": [
    {"compound": "CNC(=O)OC[C@H]1O[C@@H](n2cnc3c(N[C@@H]4CCOC4)ncnc32)[C@H](O)[C@@H]1O", "note": "[Compound 6, (5-16[((3R)oxolan-3-yl)aminolpurin-9-yl)(3S,2R,4R,5R)-3,4dihydroxyoxolan-2yl)methoxyl-N-methylearboxamide]", "values": [
      {"measurement": "Emax", "setting": "A1 adenosine receptor [1]", "value": 48, "unit": "%"},
      {"measurement": "agonist character at A1 AdoR", "setting": "A1 adenosine receptor [2]", "value": "true partial A1 AdoR agonist"},
      {"measurement": "antagonism of S-H interval prolongation caused by full agonist CPA", "setting": "A1 adenosine receptor [2]; Compound 6 2 and 10 μm, atrial cycle length 300 msec, FIG. 3", "value": "antagonizes the negative dromotropic effect"},
      {"measurement": "effect on atrial monophasic action potential", "setting": "A1 adenosine receptor [2]; FIG. 1 panel B", "value": "no effect"},
      {"measurement": "effect on AV nodal conduction time (S-H interval)", "setting": "A1 adenosine receptor [2]; FIG. 1 panel C", "value": "concentration-dependent and significant increase in AV nodal conduction time"},
      {"measurement": "second-degree AV block", "setting": "A1 adenosine receptor [2]; FIG. 1 panel C", "value": "without causing second-degree AV block at any concentration tested"},
      {"measurement": "EC50", "setting": "A1 adenosine receptor [2]; guinea pig isolated perfused hearts, read-out: EC50 to prolong S-H interval (negative dromotropic effect)", "value": "2.8 ± 1.3", "unit": "µM"},
      {"measurement": "selectivity: S-H interval prolongation versus increase of coronary conductance", "setting": "A1 adenosine receptor [2]; ratio of potencies", "value": "at least 10 fold"},
      {"measurement": "effect on heart rate (chronotropic)", "setting": "A1 adenosine receptor [2]; spontaneously beating hearts, FIG. 1 panel A", "value": "did not slow heart rate"},
      {"measurement": "EC50", "setting": "A2A AdoR", "value": "31 ± 5.1", "unit": "µM"}
    ]}
  ]
}
